Source: ChEMBL document CHEMBL1201862, “PubChem BioAssay data set” (2004)
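Results reflect a 48-hour exposure of cells in 96-well plates to compound at five concentrations. GI50 marks 50% less growth.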 The source made the active and inactive calls. No stated cut-off is given here; in the data, active = GI50 up to about 1.1 µM and inactive = higher.

What was measured:
Assay in all cases: inhibition of tumour cell growth, NCI panel, 48 h
HOP-92 = system: HOP-92
Hs-578T = system: Hs-578T
UO-31 = system: UO-31
ACHN = system: ACHN
COLO 205 = system: COLO 205
SF-295 = system: SF-295
UACC-257 = system: UACC-257
SN12C = system: SN12C
RXF 393 = system: RXF 393
MDA-MB-435 = system: MDA-MB-435
M14 = system: M14
NCI-H23 = system: NCI-H23
DU-145 = system: DU-145
UACC-62 = system: UACC-62
NCI-H226 = system: NCI-H226
IGROV-1 = system: IGROV-1
A549 = system: A549
EKVX = system: EKVX
A498 = system: A498
SNB-19 = system: SNB-19
786-0 = system: 786-0
HCC 2998 = system: HCC 2998
CAKI-1 = system: CAKI-1
U-251 = system: U-251
SW-620 = system: SW-620
HOP-62 = system: HOP-62
SK-MEL-28 = system: SK-MEL-28
HT-29 = system: HT-29
HCT-116 = system: HCT-116
NCI/ADR-RES = system: NCI/ADR-RES
HCT-15 = system: HCT-15
OVCAR-4 = system: OVCAR-4
SF-268 = system: SF-268
SK-MEL-5 = system: SK-MEL-5
OVCAR-3 = system: OVCAR-3
PC-3 = system: PC-3
MDA-N = system: MDA-N
LOX IMVI = system: LOX IMVI
NCI-H460 = system: NCI-H460
KM12 = system: KM12
OVCAR-5 = system: OVCAR-5
TK-10 = system: TK-10
SNB-75 = system: SNB-75
MDA-MB-231 = system: MDA-MB-231
OVCAR-8 = system: OVCAR-8
SF-539 = system: SF-539
SK-MEL-2 = system: SK-MEL-2
SK-OV-3 = system: SK-OV-3
K562 = system: K562
CCRF-CEM = system: CCRF-CEM
HL-60 = system: HL-60
NCI-H522 = system: NCI-H522
Malme-3M = system: Malme-3M
RPMI-8226 = system: RPMI-8226
SR = system: SR
MOLT-4 = system: MOLT-4

## COc1ccc2c(ccc3c(C(=O)NCCN(C)CCNC(=O)c4cn(C)c5c4ccc4cc(OC)ccc45)cn(C)c32)c1
HOP-92
  GI50: 2.61 µM (inactive)
Hs-578T
  GI50: 1.95 µM (inactive)
UO-31
  GI50: 1.45 µM (inactive)
ACHN
  GI50: 1.72 µM (inactive)
COLO 205
  GI50: 2.01 µM (inactive)
SF-295
  GI50: 1.85 µM (inactive)
UACC-257
  GI50: 1.58 µM (inactive)
SN12C
  GI50: 1.49 µM (inactive)
RXF 393
  GI50: 1.4 µM (inactive)
MDA-MB-435
  GI50: 2.38 µM (inactive)
M14
  GI50: 1.64 µM (inactive)
NCI-H23
  GI50: 1.32 µM (inactive)
DU-145
  GI50: 1.73 µM (inactive)
UACC-62
  GI50: 1.84 µM (inactive)
NCI-H226
  GI50: 0.628 µM (active)
IGROV-1
  GI50: 1.02 µM (active)
A549
  GI50: 1.79 µM (inactive)
EKVX
  GI50: 1.3 µM (inactive)
A498
  GI50: 20 µM (inactive)
SNB-19
  GI50: 1.95 µM (inactive)
786-0
  GI50: 1.53 µM (inactive)
HCC 2998
  GI50: 1.47 µM (inactive)
CAKI-1
  GI50: 1.62 µM (inactive)
U-251
  GI50: 3.16 µM (inactive)
SW-620
  GI50: 2.18 µM (inactive)
HOP-62
  GI50: 1.44 µM (inactive)
SK-MEL-28
  GI50: 1.79 µM (inactive)
HT-29
  GI50: 1.4 µM (inactive)
HCT-116
  GI50: 1.79 µM (inactive)
NCI/ADR-RES
  GI50: 1.42 µM (inactive)
HCT-15
  GI50: 1.26 µM
OVCAR-4
  GI50: 1.56 µM (inactive)
SF-268
  GI50: 1.95 µM (inactive)
SK-MEL-5
  GI50: 1.63 µM (inactive)
OVCAR-3
  GI50: 1.51 µM (inactive)
PC-3
  GI50: 1.51 µM (inactive)
MDA-N
  GI50: 1.57 µM (inactive)
LOX IMVI
  GI50: 2.15 µM (inactive)
NCI-H460
  GI50: 1.45 µM (inactive)
KM12
  GI50: 1.66 µM (inactive)

## CCC1(c2ccc(N3C(=O)c4ccccc4C3=O)cc2)CCC(=O)NC1=O (stereo not given)
HOP-92
  GI50: > 10 µM (inactive)
UO-31
  GI50: > 10 µM (inactive)
ACHN
  GI50: > 10 µM (inactive)
COLO 205
  GI50: > 10 µM (inactive)
SF-295
  GI50: > 10 µM (inactive)
OVCAR-5
  GI50: > 10 µM (inactive)
SN12C
  GI50: > 10 µM (inactive)
TK-10
  GI50: > 10 µM (inactive)
RXF 393
  GI50: > 10 µM (inactive)
MDA-MB-435
  GI50: > 10 µM (inactive)
M14
  GI50: > 10 µM (inactive)
SNB-75
  GI50: > 10 µM (inactive)
NCI-H23
  GI50: > 10 µM (inactive)
DU-145
  GI50: > 10 µM (inactive)
NCI-H226
  GI50: > 10 µM (inactive)
IGROV-1
  GI50: > 10 µM (inactive)
A549
  GI50: > 10 µM (inactive)
EKVX
  GI50: > 10 µM (inactive)
SNB-19
  GI50: > 10 µM (inactive)
CAKI-1
  GI50: > 10 µM (inactive)
U-251
  GI50: > 10 µM (inactive)
SW-620
  GI50: > 10 µM (inactive)
SK-MEL-28
  GI50: > 10 µM (inactive)
HT-29
  GI50: > 10 µM (inactive)
HCT-116
  GI50: > 10 µM (inactive)
NCI/ADR-RES
  GI50: > 10 µM (inactive)
HCT-15
  GI50: > 10 µM
OVCAR-4
  GI50: > 10 µM (inactive)
SF-268
  GI50: > 10 µM (inactive)
MDA-MB-231
  GI50: > 10 µM (inactive)
SK-MEL-5
  GI50: > 10 µM (inactive)
OVCAR-3
  GI50: > 10 µM (inactive)
PC-3
  GI50: > 10 µM (inactive)
OVCAR-8
  GI50: > 10 µM (inactive)
SF-539
  GI50: > 10 µM (inactive)
KM12
  GI50: > 10 µM (inactive)

## O=c1ccn([C@@H]2O[C@H](CO)[C@@H](O)[C@H]2F)c(=O)[nH]1
SK-MEL-2
  GI50: > 100 µM (inactive)
Hs-578T
  GI50: > 100 µM (inactive)
UO-31
  GI50: > 100 µM (inactive)
ACHN
  GI50: > 100 µM (inactive)
COLO 205
  GI50: > 100 µM (inactive)
SF-295
  GI50: > 100 µM (inactive)
OVCAR-5
  GI50: > 100 µM (inactive)
UACC-257
  GI50: > 100 µM (inactive)
SN12C
  GI50: > 100 µM (inactive)
TK-10
  GI50: > 100 µM (inactive)
MDA-MB-435
  GI50: > 100 µM (inactive)
SK-OV-3
  GI50: > 100 µM (inactive)
M14
  GI50: > 100 µM (inactive)
SNB-75
  GI50: > 100 µM (inactive)
NCI-H23
  GI50: > 100 µM (inactive)
DU-145
  GI50: > 100 µM (inactive)
NCI-H226
  GI50: > 100 µM (inactive)
IGROV-1
  GI50: > 100 µM (inactive)
A549
  GI50: > 100 µM (inactive)
A498
  GI50: > 100 µM (inactive)
SNB-19
  GI50: > 100 µM (inactive)
HCC 2998
  GI50: > 100 µM (inactive)
U-251
  GI50: 95.1 µM (inactive)
HOP-62
  GI50: > 100 µM (inactive)
SK-MEL-28
  GI50: > 100 µM (inactive)
HT-29
  GI50: > 100 µM (inactive)
HCT-116
  GI50: > 99.8 µM (inactive)
NCI/ADR-RES
  GI50: > 100 µM (inactive)
HCT-15
  GI50: > 99.5 µM
OVCAR-4
  GI50: > 100 µM (inactive)
SF-268
  GI50: > 100 µM (inactive)
MDA-MB-231
  GI50: > 100 µM (inactive)
MDA-N
  GI50: > 100 µM (inactive)
OVCAR-8
  GI50: > 100 µM (inactive)
SF-539
  GI50: > 100 µM (inactive)
NCI-H460
  GI50: 88.7 µM (inactive)

## O=S(=O)(O)c1cc(O)c(/N=N/c2ccc(O)cc2O)c2ccccc12
SK-MEL-2
  GI50: > 100 µM (inactive)
HOP-92
  GI50: > 100 µM (inactive)
Hs-578T
  GI50: > 100 µM (inactive)
K562
  GI50: > 100 µM (inactive)
CCRF-CEM
  GI50: 40.6 µM (inactive)
HL-60
  GI50: 80.5 µM (inactive)
ACHN
  GI50: > 100 µM (inactive)
COLO 205
  GI50: 38.1 µM (inactive)
SF-295
  GI50: 61.8 µM (inactive)
OVCAR-5
  GI50: 46.8 µM (inactive)
UACC-257
  GI50: > 100 µM (inactive)
SN12C
  GI50: > 100 µM (inactive)
TK-10
  GI50: > 100 µM (inactive)
RXF 393
  GI50: > 100 µM (inactive)
MDA-MB-435
  GI50: 51.3 µM (inactive)
SK-OV-3
  GI50: 49.1 µM (inactive)
M14
  GI50: 42.7 µM (inactive)
SNB-75
  GI50: > 100 µM (inactive)
NCI-H226
  GI50: 3.17 µM (inactive)
IGROV-1
  GI50: 22.8 µM (inactive)
A549
  GI50: 59.3 µM (inactive)
EKVX
  GI50: 30.9 µM (inactive)
SNB-19
  GI50: > 100 µM (inactive)
786-0
  GI50: > 100 µM (inactive)
CAKI-1
  GI50: > 100 µM (inactive)
U-251
  GI50: > 100 µM (inactive)
SW-620
  GI50: 86.3 µM (inactive)
HOP-62
  GI50: 66.7 µM (inactive)
SK-MEL-28
  GI50: > 100 µM (inactive)
NCI-H522
  GI50: 24.1 µM (inactive)
HT-29
  GI50: 8.97 µM (inactive)
HCT-116
  GI50: 36.6 µM (inactive)
NCI/ADR-RES
  GI50: 38.6 µM (inactive)
HCT-15
  GI50: 64 µM
OVCAR-4
  GI50: > 100 µM (inactive)
SF-268
  GI50: 37.5 µM (inactive)
Malme-3M
  GI50: 76.4 µM (inactive)
MDA-MB-231
  GI50: 85.7 µM (inactive)
SK-MEL-5
  GI50: > 100 µM (inactive)
OVCAR-3
  GI50: 27.2 µM (inactive)
PC-3
  GI50: 53.5 µM (inactive)
MDA-N
  GI50: > 100 µM (inactive)
OVCAR-8
  GI50: 30.8 µM (inactive)
LOX IMVI
  GI50: 53.1 µM (inactive)
RPMI-8226
  GI50: > 100 µM (inactive)
SR
  GI50: > 100 µM (inactive)
KM12
  GI50: 20.9 µM (inactive)
MOLT-4
  GI50: 42.2 µM (inactive)
